According to patent US20240216317A1, “COMPOSITION FOR PREVENTING, AMELIORATING OR TREATING INFLAMMATORY BOWEL DISEASE COMPRISING COMPOUND ISOLATED FROM ISODON EXCISUS AS EFFECTIVE COMPONENT” (HEALINNOLS INC., priority 2022, published 2024):

Tested on: IL-1β
Test: IL-1β mRNA expression (qPCR) in zebra fish animal model of DSS-induced inflammatory bowel disease
Assay type: in vivo, zebra fish (Danio rerio: AB)
Details: zebra fish larvae, 0.5% DSS, 5 hours treatment; Chemical formula 1 0.3 μM and 1 μM; FIG. 5
Description: As a zebra fish animal model of inflammatory bowel disease, wild-type zebra fish (Danio rerio: AB) was used, which was kept in an exclusive breeding facility at conditions including light/dark cycle of 14 hours/10 hours and temperature of 28° C. All the animal experiments were carried out according to the protocol of Ethics Committee for Animal Expectation, Healinno-LS (Registration No.: AEC-20210720-0001), and all the materials were sterilized first before they are used for experiment.
According to a treatment with 0.5% DSS (dextran sulfate sodium, M.W. 36,000-50,000, #160110, MP), which induces “ulcerative colitis” as inflammatory bowel disease by creating a damage in colonic epithelial cells, a zebra fish was induced to have inflammatory bowel disease. Then, by threating the zebra fish with the compound represented by Chemical formula 1 of the present invention at different concentrations (0.3 μM and 1 μM), inhibitory activity on inflammatory bowel disease was examined. […]
The zebra fish larvae which have been treated with the compound represented by Chemical formula 1 of the present invention were then added with TRIzol reagent (300 μl), and then homogenized by using a tissue homogenizer (G20, GINKO). […] Purity and concentration were measured by using a microplate reader (FLUOstar omega, BMG Labtech), and the extracted total RNA was kept at −80° C. […]

Nc1ccc(O)c(C(=O)O)c1 [Compound 5-ASA, 5-aminosalicylic acid, reference compound]
expression amount of IL-1β compared to DSS model group: statistically significantly lower

COC(=O)C[C@H](OC(=O)/C=C/c1ccc(O)c(O)c1)c1ccc(O)c(O)c1 [Compound 1, 3-[3,4-dihydroxyphenyl]acrylic acid 1-[3,4-dihydroxyphenyl]-2-methoxycarbonylethyl ester]
expression amount of IL-1β compared to DSS model group: statistically significantly lower
